Data: PubChem BioAssay AID1963986 (Molecular Pharmacology Branch, DTP, NCI, 2024)
Blank lines part the entries; values can stand above or below the molecule they belong to.

Test system: 171881-019-R-J1-PDC tumor spheroid viability
Experiment: Anticancer human tumor 171881-019-R-J1-PDC patient-derived invasive breast carcinoma cell line growth inhibition [PI3K]
Conditions: spheroids with HUVEC and MSC; for viability, T/C: stronger effect = lower value
How it was run: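 Viability of mixed-cell spheroids was determined after exposure to pairwise combinations, one partner being inavolisib, alpelisib, duvelisib or copanlisib. Highest tested concentration matched clinical Cmax where known and 10 microM where not, descending in half-log steps.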

[1] = curve of first compound, second compound 0.0316 µM
[2] = curve of first compound, second compound 0.1 µM
[3] = curve of first compound, second compound 0.316 µM
[4] = curve of first compound, second compound 1 µM
[5] = second compound 0.0316 µM, first compound 0.00316 µM
[6] = second compound 0.0316 µM, first compound 0.01 µM
[7] = second compound 0.0316 µM, first compound 0.0316 µM
[8] = second compound 0.0316 µM, first compound 0.1 µM
[9] = second compound 0.1 µM, first compound 0.00316 µM
[10] = second compound 0.1 µM, first compound 0.01 µM
[11] = second compound 0.1 µM, first compound 0.0316 µM
[12] = second compound 0.1 µM, first compound 0.1 µM
[13] = second compound 0.316 µM, first compound 0.00316 µM
[14] = second compound 0.316 µM, first compound 0.01 µM
[15] = second compound 0.316 µM, first compound 0.0316 µM
[16] = second compound 0.316 µM, first compound 0.1 µM
[17] = second compound 1 µM, first compound 0.00316 µM
[18] = second compound 1 µM, first compound 0.01 µM
[19] = second compound 1 µM, first compound 0.0316 µM
[20] = second compound 1 µM, first compound 0.1 µM
[21] = compound alone, run of 05/09/2023
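Further: spheroids exposed to compound for 7 days before viability read.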
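Wherever viability, T/C is given: 100% = DMSO vehicle-treated spheroids.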

IC50 [1]: > 1000 nM
IC50 [2]: > 1000 nM
IC50 [3]: > 1000 nM
IC50 [4]: < 3.16 nM
IC50 (curve of first compound, second compound 3.16 µM): < 3.16 nM
IC50 (curve of first compound, second compound 10 µM): < 3.16 nM
SMILES: CCN1CCN(Cc2ccc(Nc3ncc(F)c(-c4cc(F)c5nc(C)n(C(C)C)c5c4)n3)nc2)CC1 + Cc1nc(NC(=O)N2CCCC2C(N)=O)sc1-c1ccnc(C(C)(C)C(F)(F)F)c1
viability, T/C [5]: 102%
viability, T/C [6]: 92.9%
viability, T/C [7]: 98.6%
viability, T/C [8]: 103%
viability, T/C (second compound 0.0316 µM, first compound 0.316 µM): 111%
viability, T/C (second compound 0.0316 µM, first compound 1 µM): 103%
viability, T/C [9]: 83.9%
viability, T/C [10]: 85.8%
viability, T/C [11]: 91.5%
viability, T/C [12]: 91.9%
viability, T/C (second compound 0.1 µM, first compound 0.316 µM): 105%
viability, T/C (second compound 0.1 µM, first compound 1 µM): 104%
viability, T/C [13]: 59.5%
viability, T/C [14]: 61.1%
viability, T/C [15]: 72.2%
viability, T/C [16]: 73.8%
viability, T/C (second compound 0.316 µM, first compound 0.316 µM): 80.7%
viability, T/C (second compound 0.316 µM, first compound 1 µM): 83.3%
viability, T/C [17]: 37.2%
viability, T/C [18]: 38.8%
viability, T/C [19]: 39.1%
viability, T/C [20]: 45%
viability, T/C (second compound 1 µM, first compound 0.316 µM): 53.3%
viability, T/C (second compound 1 µM, first compound 1 µM): 61.5%
viability, T/C (second compound 3.16 µM, first compound 0.00316 µM): 15.4%
viability, T/C (second compound 3.16 µM, first compound 0.01 µM): 17%
viability, T/C (second compound 3.16 µM, first compound 0.0316 µM): 19.5%
viability, T/C (second compound 3.16 µM, first compound 0.1 µM): 21%
viability, T/C (second compound 3.16 µM, first compound 0.316 µM): 28.6%
viability, T/C (second compound 3.16 µM, first compound 1 µM): 42%
viability, T/C (second compound 10 µM, first compound 0.00316 µM): 3.79%
viability, T/C (second compound 10 µM, first compound 0.01 µM): 4.44%
viability, T/C (second compound 10 µM, first compound 0.0316 µM): 4.59%
viability, T/C (second compound 10 µM, first compound 0.1 µM): 4.85%
viability, T/C (second compound 10 µM, first compound 0.316 µM): 8.73%
viability, T/C (second compound 10 µM, first compound 1 µM): 14.2%

IC50 [21]: > 10000 nM
SMILES: CC(Nc1ncnc2nc[nH]c12)c1cc2cccc(Cl)c2c(=O)n1-c1ccccc1 (stereo not drawn)
viability, T/C (compound 0.0316 µM): 90% [middle of 8 runs]
viability, T/C (compound 0.1 µM): 97.5% [middle of 8 runs]
viability, T/C (compound 0.316 µM): 99.2% [middle of 8 runs]
viability, T/C (compound 1 µM): 100% [middle of 8 runs]
viability, T/C (compound 3.16 µM): 87.8% [middle of 8 runs]
viability, T/C (compound 10 µM): 59.8% [middle of 8 runs]

IC50 [21]: 8.74 nM [middle of 8 runs]
SMILES: COc1c(OCCCN2CCOCC2)ccc2c3n(c(=NC(=O)c4cnc(N)nc4)nc12)CCN3
viability, T/C (compound 0.00316 µM): 69.1% [middle of 8 runs]
viability, T/C (compound 0.01 µM): 46.5% [middle of 8 runs]
viability, T/C (compound 0.0316 µM): 25.6% [middle of 8 runs]
viability, T/C (compound 0.1 µM): 7.84% [middle of 8 runs]
viability, T/C (compound 0.316 µM): 1.95% [middle of 8 runs]
viability, T/C (compound 1 µM): 1.25% [middle of 7 runs]

IC50 (curve of first compound, second compound 0.00316 µM): 3.55 nM
IC50 (curve of first compound, second compound 0.01 µM): < 0.316 nM
IC50 [1]: < 0.316 nM
IC50 [2]: < 0.316 nM
IC50 [3]: < 0.316 nM
IC50 [4]: < 0.316 nM
SMILES: CC(C)n1nc(-c2ccc3oc(N)nc3c2)c2c(N)ncnc21 + COc1c(OCCCN2CCOCC2)ccc2c3n(c(=NC(=O)c4cnc(N)nc4)nc12)CCN3
viability, T/C (second compound 0.00316 µM, first compound 0.000316 µM): 61.1%
viability, T/C (second compound 0.00316 µM, first compound 0.001 µM): 66.3%
viability, T/C (second compound 0.00316 µM, first compound 0.00316 µM): 47.6%
viability, T/C (second compound 0.00316 µM, first compound 0.01 µM): 36.1%
viability, T/C (second compound 0.00316 µM, first compound 0.0316 µM): 13.1%
viability, T/C (second compound 0.00316 µM, first compound 0.1 µM): 3.55%
viability, T/C (second compound 0.01 µM, first compound 0.000316 µM): 46%
viability, T/C (second compound 0.01 µM, first compound 0.001 µM): 45.8%
viability, T/C (second compound 0.01 µM, first compound 0.00316 µM): 36.4%
viability, T/C (second compound 0.01 µM, first compound 0.01 µM): 19.3%
viability, T/C (second compound 0.01 µM, first compound 0.0316 µM): 8.72%
viability, T/C (second compound 0.01 µM, first compound 0.1 µM): 2.78%
viability, T/C (second compound 0.0316 µM, first compound 0.000316 µM): 23.6%
viability, T/C (second compound 0.0316 µM, first compound 0.001 µM): 22.3%
viability, T/C [5]: 16%
viability, T/C [6]: 8.85%
viability, T/C [7]: 4.14%
viability, T/C [8]: 2.34%
viability, T/C (second compound 0.1 µM, first compound 0.000316 µM): 8.49%
viability, T/C (second compound 0.1 µM, first compound 0.001 µM): 7.85%
viability, T/C [9]: 5.37%
viability, T/C [10]: 3.59%
viability, T/C [11]: 2.66%
viability, T/C [12]: 1.6%
viability, T/C (second compound 0.316 µM, first compound 0.000316 µM): 2.47%
viability, T/C (second compound 0.316 µM, first compound 0.001 µM): 2.41%
viability, T/C [13]: 2.58%
viability, T/C [14]: 1.51%
viability, T/C [15]: 1.36%
viability, T/C [16]: 1.1%
viability, T/C (second compound 1 µM, first compound 0.000316 µM): 1.08%
viability, T/C (second compound 1 µM, first compound 0.001 µM): 0.86%
viability, T/C [17]: 1.3%
viability, T/C [18]: 1.16%
viability, T/C [19]: 1.03%
viability, T/C [20]: 1.05%
